Laboratory results: US20020111274A1, “1-alkyl-3-[1-(substituted phenyl) benzotriazol-6-yl] uracils” (BASF Aktiengesellschaft, priority 2000, published 2002)

What was measured:
Parameters in all cases: scale not given here
ABUTH Velvetleaf [1] = assay: Preemergence herbicidal evaluation, ABUTH; assay type: in vivo, Abutilon theophrasti, Medic.; settings: preemergence
Method in brief: (§1)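 Preemergence soil spray: aqueous acetone, ~0.013–0.800 kg/ha, applied right after sowing (seed/potting-soil mix over ~1 in soil). Greenhouse, routine watering. Scored 4–5 wk post-treatment on a rating scale.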

[2] = test system: IPOHE Morningglory, Ivyleaf; assay: Preemergence herbicidal evaluation, IPOHE; assay type: in vivo, Ipomoea hederacea, (L.) Jacq.; settings: preemergence
Method in brief: as §1

ORYSAT Rice, Tebonnet [3] = assay: Preemergence herbicidal evaluation, ORYSAT; assay type: in vivo, Oryza sativa, (L.); settings: preemergence
Method in brief: as §1

ABUTH Velvetleaf [4] = assay: Postemergence herbicidal evaluation, ABUTH; assay type: in vivo, Abutilon theophrasti, Medic.; settings: postemergence spray, rated about two-three weeks after treatment
Method in brief: (§2)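 Ratings from greenhouse plants scored about two to three weeks after a foliar spray; data from multiple tests averaged. Seedlings about two weeks old received roughly 0.006–0.400 kg/ha active compound in 80/20 acetone/water with 1.0% methylated seed oil.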

SETVI Foxtail, Green [5] = assay: Postemergence herbicidal evaluation, SETVI; assay type: in vivo, Setaria viridis, (L.) Beau; settings: postemergence spray, rated about two-three weeks after treatment
Method in brief: as §2

SETVI Foxtail, Green [6] = assay: Preemergence herbicidal evaluation, SETVI; assay type: in vivo, Setaria viridis, (L.) Beau; settings: preemergence
Method in brief: as §1

ECHOG Barnyardgrass [7] = assay: Postemergence herbicidal evaluation, ECHOG; assay type: in vivo, Echinochloa crus-galli, (L.) Beau; settings: postemergence spray, rated about two-three weeks after treatment
Method in brief: as §2

GLXMAW Soybean, Williams [8] = assay: Postemergence herbicidal evaluation, GLXMAW; assay type: in vivo, Glycine max, (L.) Merr. cv Williams; settings: postemergence spray, rated about two-three weeks after treatment
Method in brief: as §2

[9] = test system: IPOHE Morningglory, Ivyleaf; assay: Postemergence herbicidal evaluation, IPOHE; assay type: in vivo, Ipomoea hederacea, (L.) Jacq.; settings: postemergence spray, rated about two-three weeks after treatment
Method in brief: as §2

[10] = test system: CHEAL Lambsquarters, Common; assay: Preemergence herbicidal evaluation, CHEAL; assay type: in vivo, Chenopodium album, L.; settings: preemergence
Method in brief: as §1

[11] = test system: CHEAL Lambsquarters, Common; assay: Postemergence herbicidal evaluation, CHEAL; assay type: in vivo, Chenopodium album, L.; settings: postemergence spray, rated about two-three weeks after treatment
Method in brief: as §2

[12] = test system: TRZAWR Wheat, Winter, cv Riband; assay: Preemergence herbicidal evaluation, TRZAWR; assay type: in vivo, Triticum aestivum; settings: preemergence
Method in brief: as §1

AMBEL Ragweed, Common [13] = assay: Postemergence herbicidal evaluation, AMBEL; assay type: in vivo, Ambrosia artemisifolia, L.; settings: postemergence spray, rated about two-three weeks after treatment
Method in brief: as §2

CASOB Sicklepod [14] = assay: Preemergence herbicidal evaluation, CASOB; assay type: in vivo, Cassia obtusifolia, L.; settings: preemergence
Method in brief: as §1

ORYSAT Rice, Tebonnet [15] = assay: Postemergence herbicidal evaluation, ORYSAT; assay type: in vivo, Oryza sativa, (L.); settings: postemergence spray, rated about two-three weeks after treatment
Method in brief: as §2

CASOB Sicklepod [16] = assay: Postemergence herbicidal evaluation, CASOB; assay type: in vivo, Cassia obtusifolia, L.; settings: postemergence spray, rated about two-three weeks after treatment
Method in brief: as §2

ZEAMX Corn, Field [17] = assay: Preemergence herbicidal evaluation, ZEAMX; assay type: in vivo, Zea mays, L. (Sammel-Bezeichnung); settings: preemergence
Method in brief: as §1

ECHOG Barnyardgrass [18] = assay: Preemergence herbicidal evaluation, ECHOG; assay type: in vivo, Echinochloa crus-galli, (L.) Beau; settings: preemergence
Method in brief: as §1

[19] = test system: TRZAWR Wheat, Winter, cv Riband; assay: Postemergence herbicidal evaluation, TRZAWR; assay type: in vivo, Triticum aestivum; settings: postemergence spray, rated about two-three weeks after treatment
Method in brief: as §2

GLXMAW Soybean, Williams [20] = assay: Preemergence herbicidal evaluation, GLXMAW; assay type: in vivo, Glycine max, (L.) Merr. cv Williams; settings: preemergence
Method in brief: as §1

GALAP Galium [21] = assay: Preemergence herbicidal evaluation, GALAP; assay type: in vivo, Galium aparine; settings: preemergence
Method in brief: as §1

GALAP Galium [22] = assay: Postemergence herbicidal evaluation, GALAP; assay type: in vivo, Galium aparine; settings: postemergence spray, rated about two-three weeks after treatment
Method in brief: as §2

AMBEL Ragweed, Common [23] = assay: Preemergence herbicidal evaluation, AMBEL; assay type: in vivo, Ambrosia artemisifolia, L.; settings: preemergence
Method in brief: as §1

ZEAMX Corn, Field [24] = assay: Postemergence herbicidal evaluation, ZEAMX; assay type: in vivo, Zea mays, L. (Sammel-Bezeichnung); settings: postemergence spray, rated about two-three weeks after treatment
Method in brief: as §2

Cc1cc(O)ccc1-n1nnc2cc(F)c(-n3c(=O)cc(C(F)(F)F)n(C)c3=O)cc21 [Example 33]
3.5: Postemergence herbicidal rating GLXMAW (GLXMAW Soybean, Williams [8]; 0.016 kg/ha) | Postemergence herbicidal rating ZEAMX (ZEAMX Corn, Field [24]; 0.032 kg/ha)
1.5: Postemergence herbicidal rating GLXMAW (GLXMAW Soybean, Williams [8]; 0.008 kg/ha)
0.0: ABUTH herbicidal rating (ABUTH Velvetleaf [1]; rate 0.016 kg/ha) | ABUTH herbicidal rating (ABUTH Velvetleaf [1]; rate 0.032 kg/ha) | ABUTH herbicidal rating (ABUTH Velvetleaf [1]; rate 0.062 kg/ha) | IPOHE herbicidal rating ([2]; rate 0.016 kg/ha) | IPOHE herbicidal rating ([2]; rate 0.032 kg/ha) | IPOHE herbicidal rating ([2]; rate 0.062 kg/ha) | IPOHE herbicidal rating ([2]; rate 0.125 kg/ha) | ORYSAT herbicidal rating (ORYSAT Rice, Tebonnet [3]; rate 0.016 kg/ha) | ORYSAT herbicidal rating (ORYSAT Rice, Tebonnet [3]; rate 0.032 kg/ha) | ORYSAT herbicidal rating (ORYSAT Rice, Tebonnet [3]; rate 0.062 kg/ha) | ORYSAT herbicidal rating (ORYSAT Rice, Tebonnet [3]; rate 0.125 kg/ha) | Postemergence herbicidal rating ABUTH (ABUTH Velvetleaf [4]; 0.008 kg/ha) | Postemergence herbicidal rating SETVI (SETVI Foxtail, Green [5]; 0.008 kg/ha) | Postemergence herbicidal rating SETVI (SETVI Foxtail, Green [5]; 0.016 kg/ha) | Postemergence herbicidal rating SETVI (SETVI Foxtail, Green [5]; 0.032 kg/ha) | Postemergence herbicidal rating SETVI (SETVI Foxtail, Green [5]; 0.062 kg/ha) | SETVI herbicidal rating (SETVI Foxtail, Green [6]; rate 0.016 kg/ha) | SETVI herbicidal rating (SETVI Foxtail, Green [6]; rate 0.032 kg/ha) | SETVI herbicidal rating (SETVI Foxtail, Green [6]; rate 0.062 kg/ha) | SETVI herbicidal rating (SETVI Foxtail, Green [6]; rate 0.125 kg/ha) | Postemergence herbicidal rating ECHCG (ECHOG Barnyardgrass [7]; 0.008 kg/ha) | Postemergence herbicidal rating ECHCG (ECHOG Barnyardgrass [7]; 0.016 kg/ha) | Postemergence herbicidal rating ECHCG (ECHOG Barnyardgrass [7]; 0.032 kg/ha) | Postemergence herbicidal rating ECHCG (ECHOG Barnyardgrass [7]; 0.062 kg/ha) | Postemergence herbicidal rating IPOHE ([9]; 0.008 kg/ha) | Postemergence herbicidal rating CHEAL ([11]; 0.008 kg/ha) | Postemergence herbicidal rating CHEAL ([11]; 0.016 kg/ha) | Postemergence herbicidal rating CHEAL ([11]; 0.032 kg/ha) | TRZAWR herbicidal rating ([12]; rate 0.016 kg/ha) | TRZAWR herbicidal rating ([12]; rate 0.032 kg/ha) | TRZAWR herbicidal rating ([12]; rate 0.062 kg/ha) | TRZAWR herbicidal rating ([12]; rate 0.125 kg/ha) | Postemergence herbicidal rating AMBEL (AMBEL Ragweed, Common [13]; 0.008 kg/ha) | Postemergence herbicidal rating AMBEL (AMBEL Ragweed, Common [13]; 0.016 kg/ha) | Postemergence herbicidal rating AMBEL (AMBEL Ragweed, Common [13]; 0.032 kg/ha) | Postemergence herbicidal rating AMBEL (AMBEL Ragweed, Common [13]; 0.062 kg/ha) | CASOB herbicidal rating (CASOB Sicklepod [14]; rate 0.016 kg/ha) | CASOB herbicidal rating (CASOB Sicklepod [14]; rate 0.032 kg/ha) | CASOB herbicidal rating (CASOB Sicklepod [14]; rate 0.062 kg/ha) | CASOB herbicidal rating (CASOB Sicklepod [14]; rate 0.125 kg/ha) | Postemergence herbicidal rating ORYSAT (ORYSAT Rice, Tebonnet [15]; 0.008 kg/ha) | Postemergence herbicidal rating ORYSAT (ORYSAT Rice, Tebonnet [15]; 0.016 kg/ha) | Postemergence herbicidal rating CASOB (CASOB Sicklepod [16]; 0.008 kg/ha) | Postemergence herbicidal rating CASOB (CASOB Sicklepod [16]; 0.016 kg/ha) | Postemergence herbicidal rating CASOB (CASOB Sicklepod [16]; 0.032 kg/ha) | Postemergence herbicidal rating CASOB (CASOB Sicklepod [16]; 0.062 kg/ha) | ZEAMX herbicidal rating (ZEAMX Corn, Field [17]; rate 0.016 kg/ha) | ZEAMX herbicidal rating (ZEAMX Corn, Field [17]; rate 0.032 kg/ha) | ZEAMX herbicidal rating (ZEAMX Corn, Field [17]; rate 0.062 kg/ha) | ZEAMX herbicidal rating (ZEAMX Corn, Field [17]; rate 0.125 kg/ha) | ECHCG herbicidal rating (ECHOG Barnyardgrass [18]; rate 0.016 kg/ha) | ECHCG herbicidal rating (ECHOG Barnyardgrass [18]; rate 0.032 kg/ha) | ECHCG herbicidal rating (ECHOG Barnyardgrass [18]; rate 0.062 kg/ha) | ECHCG herbicidal rating (ECHOG Barnyardgrass [18]; rate 0.125 kg/ha) | GLXMAW herbicidal rating (GLXMAW Soybean, Williams [20]; rate 0.016 kg/ha) | GLXMAW herbicidal rating (GLXMAW Soybean, Williams [20]; rate 0.032 kg/ha) | GLXMAW herbicidal rating (GLXMAW Soybean, Williams [20]; rate 0.062 kg/ha) | GLXMAW herbicidal rating (GLXMAW Soybean, Williams [20]; rate 0.125 kg/ha) | GALAP herbicidal rating (GALAP Galium [21]; rate 0.016 kg/ha) | GALAP herbicidal rating (GALAP Galium [21]; rate 0.032 kg/ha) | GALAP herbicidal rating (GALAP Galium [21]; rate 0.062 kg/ha) | GALAP herbicidal rating (GALAP Galium [21]; rate 0.125 kg/ha) | Postemergence herbicidal rating GALAP (GALAP Galium [22]; 0.008 kg/ha) | Postemergence herbicidal rating GALAP (GALAP Galium [22]; 0.016 kg/ha) | Postemergence herbicidal rating GALAP (GALAP Galium [22]; 0.032 kg/ha) | Postemergence herbicidal rating GALAP (GALAP Galium [22]; 0.062 kg/ha) | AMBEL herbicidal rating (AMBEL Ragweed, Common [23]; rate 0.016 kg/ha) | AMBEL herbicidal rating (AMBEL Ragweed, Common [23]; rate 0.032 kg/ha) | AMBEL herbicidal rating (AMBEL Ragweed, Common [23]; rate 0.062 kg/ha) | AMBEL herbicidal rating (AMBEL Ragweed, Common [23]; rate 0.125 kg/ha)
1.0: Postemergence herbicidal rating TRZAWR ([19]; 0.016 kg/ha)
2.5: Postemergence herbicidal rating TRZAWR ([19]; 0.062 kg/ha)
2.0: Postemergence herbicidal rating IPOHE ([9]; 0.016 kg/ha) | Postemergence herbicidal rating CHEAL ([11]; 0.062 kg/ha) | Postemergence herbicidal rating ORYSAT (ORYSAT Rice, Tebonnet [15]; 0.062 kg/ha) | Postemergence herbicidal rating TRZAWR ([19]; 0.032 kg/ha)
3.0: Postemergence herbicidal rating ABUTH (ABUTH Velvetleaf [4]; 0.016 kg/ha) | Postemergence herbicidal rating ABUTH (ABUTH Velvetleaf [4]; 0.032 kg/ha) | Postemergence herbicidal rating IPOHE ([9]; 0.032 kg/ha) | Postemergence herbicidal rating ZEAMX (ZEAMX Corn, Field [24]; 0.008 kg/ha) | Postemergence herbicidal rating ZEAMX (ZEAMX Corn, Field [24]; 0.016 kg/ha)
0.5: Postemergence herbicidal rating ORYSAT (ORYSAT Rice, Tebonnet [15]; 0.032 kg/ha) | Postemergence herbicidal rating TRZAWR ([19]; 0.008 kg/ha)
5.0: Postemergence herbicidal rating ABUTH (ABUTH Velvetleaf [4]; 0.062 kg/ha) | Postemergence herbicidal rating GLXMAW (GLXMAW Soybean, Williams [8]; 0.062 kg/ha)
9.0: ABUTH herbicidal rating (ABUTH Velvetleaf [1]; rate 0.125 kg/ha) | Postemergence herbicidal rating IPOHE ([9]; 0.062 kg/ha) | CHEAL herbicidal rating ([10]; rate 0.016 kg/ha) | CHEAL herbicidal rating ([10]; rate 0.032 kg/ha) | CHEAL herbicidal rating ([10]; rate 0.062 kg/ha) | CHEAL herbicidal rating ([10]; rate 0.125 kg/ha)
4.0: Postemergence herbicidal rating GLXMAW (GLXMAW Soybean, Williams [8]; 0.032 kg/ha) | Postemergence herbicidal rating ZEAMX (ZEAMX Corn, Field [24]; 0.062 kg/ha)
